One test has as its system Rhizoctonia solani. In words: Rhizoctonia solani test (in vitro)/microtiter plates, Example 2. Particulars: 96 h, read-out: % efficacy.
A further test concerns Coriolus versicolor. Nature of the test: microbe, parasite or virus in culture. Particulars: Trametes versicolor, 72 h, read-out: % efficacy.
Test [1] has as its system Pyricularia oryzae. Nature of the test: microbe, parasite or virus in culture. Type of test: cell-based. Particulars: 72 h, read-out: % efficacy.
Test [2] deals with Pyricularia oryzae. Nature of the test: microbe, parasite or virus in culture. Type of test: cell-based. Particulars: 120 h, read-out: % efficacy.
A further test has as its system Botrytis cinerea. In words: Botrytis cinerea test (in vitro)/microtiter plates, Example 5. The test is classed as cell-based. Particulars: 72 h, single active compound, spore suspension in PDB, 3 days incubation, ipconazole as commercially available formulation, read-out: % efficacy.
In test [3] the test system is Pyricularia oryzae. In words: microbe, parasite or virus in culture. Type of test: cell-based. Particulars: 96 h, read-out: % efficacy.
The test system of test [4] is Pyricularia oryzae. Nature of the test: microbe, parasite or virus in culture. The test is classed as cell-based. Particulars: 72 h, read-out: % efficacy. This is another data set of the same source.

Where two headings read alike, the source gives them in different places.

`O=C(Nc1ccccc1-c1ccc(Cl)cc1)c1cccnc1Cl` [boscalid]: the Emax at 0.1 ppm in the test with Rhizoctonia solani was 67%. Consider `CC1COC(Cn2cncn2)(c2ccc(Oc3ccc(Cl)cc3)cc2Cl)O1` (centres unmarked) [difenoconazole], for which the Emax at 0.03 ppm with Coriolus versicolor is 93%. With `CO/N=C(/C1=NOCCO1)c1ccccc1Oc1ncnc(Oc2ccccc2Cl)c1F` [fluoxastrobin], the values for the Emax at 0.1 ppm in the test with Pyricularia oryzae [1], in the test on Pyricularia oryzae [3] and in the test on Rhizoctonia solani were 80%, 82% and 64%, respectively. The results for the Emax at 0.3 ppm in the test with Pyricularia oryzae [2] and in the test on Pyricularia oryzae [4] were 86% and 84%, respectively. In addition, the Emax at 0.003 ppm with Botrytis cinerea was found to be 9%. Moreover, in the test with Coriolus versicolor, the Emax at 0.03 ppm was 24%. In the case of `OC(Cn1cncn1)(c1ccc(F)cc1)c1ccccc1F` (centres unmarked) [flutriafol], the Emax at 0.3 ppm in the test with Pyricularia oryzae [2] is 6%. `CC(C)C1CCC(Cc2ccc(Cl)cc2)C1(O)Cn1cncn1` (centres unmarked) [ipconazole]: in the test with Botrytis cinerea, the Emax at 0.003 ppm stood at 3%. In the case of `COCC(=O)N(c1c(C)cccc1C)[C@H](C)C(=O)OC` [mefenoxam, metalaxyl-M], the Emax at 0.3 ppm in the test on Pyricularia oryzae [4] amounted to 16%. As to `CCCCC(C#N)(Cn1cncn1)c1ccc(Cl)cc1` (centres unmarked) [myclobutanil], the Emax at 0.1 ppm in the test with Pyricularia oryzae [3] was determined as 4%. `C=CCNC(=O)c1c([Si](C)(C)C)sc(C)c1C` [silthiofam]: the Emax at 0.1 ppm with Pyricularia oryzae [1] turned out to be 1%.

The values are drawn from patent US20180014541A1, “FUNGICIDAL ACTIVE COMPOUND COMBINATIONS” (ARYSTA LIFESCIENCE CORPORATION, priority 2004, published 2018).
